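Exposure lasted 48 hours, with cells grown in 96-well plates and compounds tested at five concentrations. The concentration for 50% growth inhibition is given as GI50.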 Calls of active or inactive are those of the source. Rule as the data show it: active = GI50 up to about 1.1 µM and inactive = higher.
Experiments:
Assay in all cases: NCI tumour cell line growth inhibition, 48 h
786-0 = test system: 786-0
A498 = test system: A498
A549 = test system: A549
ACHN = test system: ACHN
BT-549 = test system: BT-549
CAKI-1 = test system: CAKI-1
CCRF-CEM = test system: CCRF-CEM
COLO 205 = test system: COLO 205
DU-145 = test system: DU-145
EKVX = test system: EKVX
HCC 2998 = test system: HCC 2998
HCT-116 = test system: HCT-116
HCT-15 = test system: HCT-15
HL-60 = test system: HL-60
HOP-62 = test system: HOP-62
HT-29 = test system: HT-29
Hs-578T = test system: Hs-578T
IGROV-1 = test system: IGROV-1
K562 = test system: K562
KM12 = test system: KM12
LOX IMVI = test system: LOX IMVI
M14 = test system: M14
MCF7 = test system: MCF7
MDA-MB-231 = test system: MDA-MB-231
MDA-MB-435 = test system: MDA-MB-435
MDA-N = test system: MDA-N
MOLT-4 = test system: MOLT-4
Malme-3M = test system: Malme-3M
NCI-H226 = test system: NCI-H226
NCI-H460 = test system: NCI-H460
NCI-H522 = test system: NCI-H522
OVCAR-3 = test system: OVCAR-3
OVCAR-4 = test system: OVCAR-4
OVCAR-5 = test system: OVCAR-5
OVCAR-8 = test system: OVCAR-8
PC-3 = test system: PC-3
RPMI-8226 = test system: RPMI-8226
RXF 393 = test system: RXF 393
SF-268 = test system: SF-268
SF-295 = test system: SF-295
SF-539 = test system: SF-539
SK-MEL-28 = test system: SK-MEL-28
SK-MEL-2 = test system: SK-MEL-2
SK-MEL-5 = test system: SK-MEL-5
SK-OV-3 = test system: SK-OV-3
SN12C = test system: SN12C
SNB-19 = test system: SNB-19
SNB-75 = test system: SNB-75
SR = test system: SR
SW-620 = test system: SW-620
T47D = test system: T47D
TK-10 = test system: TK-10
U-251 = test system: U-251
UACC-257 = test system: UACC-257
UACC-62 = test system: UACC-62

## CC(C)C1OC(=O)C=C1Sc1ccccc1 (stereo not given)
786-0
  GI50: > 100 µM (inactive)
A498
  GI50: > 100 µM (inactive)
A549
  GI50: > 100 µM (inactive)
ACHN
  GI50: > 100 µM (inactive)
BT-549
  GI50: > 100 µM (inactive)
CAKI-1
  GI50: > 100 µM (inactive)
CCRF-CEM
  GI50: > 100 µM (inactive)
COLO 205
  GI50: > 100 µM (inactive)
DU-145
  GI50: > 100 µM (inactive)
EKVX
  GI50: > 100 µM (inactive)
HCC 2998
  GI50: > 100 µM (inactive)
HCT-116
  GI50: > 100 µM (inactive)
HCT-15
  GI50: > 100 µM
HL-60
  GI50: > 100 µM (inactive)
HOP-62
  GI50: > 100 µM (inactive)
HT-29
  GI50: > 100 µM (inactive)
Hs-578T
  GI50: > 100 µM (inactive)
IGROV-1
  GI50: > 100 µM (inactive)
K562
  GI50: > 100 µM (inactive)
KM12
  GI50: > 100 µM (inactive)
LOX IMVI
  GI50: > 100 µM (inactive)
M14
  GI50: > 100 µM (inactive)
MCF7
  GI50: > 100 µM (inactive)
MDA-MB-231
  GI50: > 100 µM (inactive)
MDA-MB-435
  GI50: > 100 µM (inactive)
MDA-N
  GI50: > 100 µM (inactive)
MOLT-4
  GI50: > 100 µM (inactive)
Malme-3M
  GI50: 80.7 µM (inactive)
NCI-H226
  GI50: > 100 µM (inactive)
NCI-H460
  GI50: > 100 µM (inactive)
NCI-H522
  GI50: > 100 µM (inactive)
OVCAR-3
  GI50: > 100 µM (inactive)
OVCAR-4
  GI50: > 100 µM (inactive)
OVCAR-5
  GI50: > 100 µM (inactive)
OVCAR-8
  GI50: > 100 µM (inactive)
PC-3
  GI50: > 100 µM (inactive)
RPMI-8226
  GI50: > 100 µM (inactive)
RXF 393
  GI50: > 100 µM (inactive)
SF-268
  GI50: > 100 µM (inactive)
SF-295
  GI50: > 100 µM (inactive)
SF-539
  GI50: > 100 µM (inactive)
SK-MEL-28
  GI50: > 100 µM (inactive)
SK-MEL-2
  GI50: > 100 µM (inactive)
SK-MEL-5
  GI50: > 100 µM (inactive)
SK-OV-3
  GI50: > 100 µM (inactive)
SN12C
  GI50: > 100 µM (inactive)
SNB-19
  GI50: > 100 µM (inactive)
SNB-75
  GI50: > 100 µM (inactive)
SR
  GI50: > 100 µM (inactive)
SW-620
  GI50: > 100 µM (inactive)
T47D
  GI50: > 100 µM (inactive)
TK-10
  GI50: > 100 µM (inactive)
U-251
  GI50: > 100 µM (inactive)
UACC-257
  GI50: > 100 µM (inactive)
UACC-62
  GI50: > 100 µM (inactive)

— ChEMBL document CHEMBL1201862, “PubChem BioAssay data set” (2004)
